{"source": "patent US11246907B2", "about": "“Immunosuppressive agents and their use in therapy” (Norwegian University of Science and Technology, priority 2013, dated 2022)", "key": {"JJN-3 cells": {"test_system": "JJN-3 cells", "assay": "Cell survival (MTT) assay, multiple myeloma cell line JJN-3", "format": "cell-based", "conditions": "6 μM ATX-101 with 5 μM LY294002 or 10 μM SB20358", "description": "Phosphorylated kinase levels were corrected for loading differences (β-tubulin) and normalized to untreated control cells. Data is from three independent experiments (mean±SD).\n(§1) The multiple myeloma cell lines JJN-3 (gift from J. Ball, University of Birmingham, United Kingdom) were grown in RPMI 1640 (Sigma-Aldrich, Schnelldorf, Germany) supplemented with 10% FCS, 2 mM glutamine (Sigma-Aldrich), 2.5 μg/ml amphotericin B (Sigma-Aldrich) and 100 μg/ml gentamicin (Invitrogen, Carlsbad, Calif., USA). HaCaT cells (spontaneously transformed keratinocytes) were cultured in DMEM (Sigma-Aldrich) containing FCS, glutamine, amphotericin B, and gentamicin. All cells were cultured at 37° C. in a humidified atmosphere of 5% CO2.\n(§2) Cells were seeded into 96-well plates and ATX-101, kinase inhibitors (SB203580 and BIRB0796), and polyIC were added alone or in combination at the indicated concentrations. Cells were exposed continuously and harvested every day for the next four days using the MTT (3-(4.5-Dimethylthiazol-2-yl)-2.5 diphenyl-tetrazolium bromide) assay (Gilljam et al., 2009, supra). The average from at least 4 wells was used to calculate cell survival."}, "RPMI-8226": {"test_system": "RPMI-8226", "assay": "Cell growth/cytotoxicity, multiple myeloma cell line RPMI-8226", "format": "cell-based", "description": "as §2\nTo further elucidate whether ATX-101 directly affected the MAPK and PI3K pathways, we analyzed the phosphorylation levels of downstream kinases in JJN-3 cells at different time points after ATX-101 addition. The phosphorylation of Akt and the p70 S6 kinase (downstream of mTOR) were both decreased by ATX-101 treatment."}, "[1]": {"test_system": "Akt Ser473 phosphorylation", "assay": "Western blot of Akt Ser473 phosphorylation in JJN-3 cells", "format": "cell-based", "conditions": "6 μM ATX-101, 4, 8, 24 h"}, "[2]": {"test_system": "ERK1 Thr202/Tyr204 and ERK2 Thr185/Tyr187 phosphorylation", "assay": "Western blot of ERK1/2 phosphorylation in JJN-3 cells", "format": "cell-based", "conditions": "6 μM ATX-101, 4, 8, 24 h"}, "[3]": {"test_system": "Akt Ser473 phosphorylation", "assay": "Western blot of Akt Ser473 phosphorylation in HaCaT cells", "format": "cell-based, human", "conditions": "12 μM, 4 h; unstimulated and 2 μg/ml polyIC", "description": "(§3) Protein levels were corrected for loading differences (β-tubulin) and normalized to untreated control cells. […] Bar, 5 μm.\nas §1\n(§4) Mononucleated cells were seeded and stimulated as described above. JJN-3 cells were treated with ATX-101 (6 μM) for 4 h. HaCaT cells were treated with ATX-101 (12 μM), polylC (2 μg/ml), and LPS (100 ng/ml) for 4 h. […] The proteins were visualized with the Odyssey infrared imaging system (LI-COR) and quantified using Odyssey Image Studio V2. […]"}, "PACT": {"test_system": "PACT", "assay": "Western blot of PACT protein levels in HaCaT cells", "format": "cell-based, human", "conditions": "12 μM ATX-101 + 2 μg/ml polyIC, 4 h", "description": "as §3, §1, §4"}, "monocytes": {"test_system": "monocytes", "assay": "Annexin staining / flow cytometry of monocytes (apoptosis)", "format": "cell-based, human", "conditions": "for Percentage of annexin positive cells: 4 hours, monocytes", "description": "Annexin staining was used to determine cell viability and cells were counted using flow cytometry.\nPeripheral blood […] were isolated from A+ buffy coats (Blood Bank, St. Olav's University Hospital) by density gradient centrifugation (Lymphoprep; Axis-Shield PoC, Oslo, Norway). The adherent cell fraction after 90 minute incubation, termed monocytes, were washed twice with HANKS and maintained in RPMI 1640 supplemented with 2 mM glutamine, […] gentamicin and 25% heat-inactivated HS over-night. Cells were cultured at 37° C. in a humidified atmosphere of 5% CO2 over-night. […] An R11 peptide and no peptide treatment were used as controls. After 4 hours, the cells were washed once in PBS, and re-suspended in buffer as recommended by the manufacturer of the Annexin V-Pacific Blue kit (Invitrogen). Cells were identified monocytes according to size (FSC) and granularity (SSC)."}, "PCNA": {"biological_target": "PCNA (Homo sapiens, UniProt P12004)", "sequence (P12004 whole entry)": "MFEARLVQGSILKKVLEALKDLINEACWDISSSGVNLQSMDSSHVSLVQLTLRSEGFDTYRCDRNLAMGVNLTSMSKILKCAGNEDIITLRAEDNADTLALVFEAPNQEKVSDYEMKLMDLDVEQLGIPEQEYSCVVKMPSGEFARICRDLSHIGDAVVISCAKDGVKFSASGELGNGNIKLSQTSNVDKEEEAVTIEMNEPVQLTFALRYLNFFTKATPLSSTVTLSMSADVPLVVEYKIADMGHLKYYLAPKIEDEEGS", "assay": "Microscale thermophoresis (MST) of peptide interaction with PCNA", "format": "binding", "description": "Microscale thermophoresis (MST) was used to determine the dissociation constant for various APIM containing peptides.\nPCNA was labeled with a fluorescent molecule. The concentration of PCNA was kept constant, whereas dilutions of each APIM containing peptide were prepared (1:1)."}, "normal cells": {"test_system": "normal cells", "conditions": "4 μM dose; cited from earlier work"}}, "note": "Ends that are not written are not given here.", "data": [{"substance": "Ac-MDRWLVKWKKKRKIRRRRRRRRRRR [ATX-101]", "values": [{"measurement": "growth-inhibitory effect of kinase inhibitors in combination with ATX-101 (cell growth, MTT)", "setting": "JJN-3 cells", "value": "increased the growth-inhibitory effect of p38 MAPK and class I PI3K inhibitors"}, {"measurement": "cytotoxic effects of melphalan in combination with kinase inhibitors and ATX-101", "setting": "RPMI-8226", "value": "enhanced the cytotoxic effects of melphalan"}, {"measurement": "growth-inhibitory effects of ERK5 and MEK1 inhibitors in combination with ATX-101", "setting": "RPMI-8226", "value": "increased the growth-inhibitory effects of ERK5 and MAPK kinase 1 (MEK1) inhibitors"}, {"measurement": "phosphorylation of Akt", "setting": "[1]", "value": "decreased"}, {"measurement": "ERK1/2 phosphorylation", "setting": "[2]", "value": "transient increase"}, {"measurement": "Akt phosphorylation in HaCaT cells", "setting": "[3]", "value": "reduced Akt phosphorylation in unstimulated and stimulated cells"}, {"measurement": "PACT protein level, polyIC-stimulated HaCaT cells", "setting": "PACT", "value": "further reduced the protein level of PACT"}, {"measurement": "Percentage of annexin positive cells", "setting": "monocytes; 5μM peptide treatment", "value": 72, "unit": "%"}, {"measurement": "Percentage of annexin positive cells", "setting": "monocytes; 10 μM peptide treatment", "value": 79, "unit": "%"}, {"measurement": "induction of apoptosis in monocytes", "setting": "monocytes; at the concentration used for cytokine secretion (4 μM)", "value": "did not induce apoptosis"}, {"measurement": "interaction with PCNA by MST (in words)", "setting": "PCNA", "value": "stronger interactions with PCNA than ATX-A"}, {"measurement": "toxicity on normal cells in BMCS assays", "setting": "normal cells", "value": "low toxicity"}]}]}
